According to US6274715A, “Tricyclic erythromycin derivatives” (priority 1997, dated 2001):
≈ marks a conversion by molar mass, not a printed value.

What was measured:
Format in all cases: cell-based
[1] = tested on: STAPHYLOCOCCUS AUREUS CMX 553; test: In vitro antibacterial activity, MIC, BHI agar dilution; conditions: S. aureus CMX 553, unit assumed
[2] = tested on: STREPTOCOCCUS PYOGENES EES61; test: as above; conditions: S. pyogenes EES61, unit assumed
[3] = tested on: PSEUDOMONAS AERUGINOSA K799/WT; test: as above; conditions: P. aeruginosa K799/WT, unit assumed
[4] = tested on: ACINETOBACTER CALCOACETICUS CMX 669; test: as above; conditions: A. calcoaceticus CMX 669, unit assumed
[5] = tested on: STAPHYLOCOCCUS AUREUS NCTC10649M; test: as above; conditions: S. aureus NCTC10649M, unit assumed
[6] = tested on: STAPHYLOCOCCUS AUREUS ATCC 6538P; test: as above; conditions: S. aureus ATCC 6538P, 35-37° C., 20 to 24 hours, unit assumed
[7] = tested on: PSEUDOMONAS CEPACIA 296I; test: as above; conditions: P. cepacia 296I, unit assumed
[8] = tested on: STAPHYLOCOCCUS AUREUS CMX 642A; test: as above; conditions: S. aureus CMX 642A, unit assumed
[9] = tested on: PROVIDENCIA STUARTII CMX 640; conditions: P. stuartii CMX 640; BHI agar; unit assumed
[10] = tested on: KLEBSIELLA PNEUMONIAE ATCC 8045; test: In vitro antibacterial activity, MIC, BHI agar dilution; conditions: K. pneumoniae ATCC 8045, unit assumed
[11] = tested on: EN[…] ATCC 8043; test: as above; conditions: E. faecium ATCC 8043, unit assumed
Method in brief: (§1)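 MIC was read visually as the lowest drug concentration showing no growth, a slight haze or sparsely isolated colonies relative to a compound-free BHI plate. Plates held serial aqueous dilutions in BHI agar, were spot-inoculated with 1:100 (or 1:10) culture dilutions and incubated 20 to 24 hours at 35-37° C.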

[12] = tested on: M[…] ATCC 4698; test: as above; conditions: M. luteus ATCC 4698, unit assumed
Method in brief: as §1

[13] = tested on: M[…] ATCC 9341; test: as above; conditions: M. luteus ATCC 9341, unit assumed
Method in brief: as §1

[14] = tested on: STR[…] 508; test: as above; conditions: S. agalactiae CMX 508, unit assumed
Method in brief: as §1

[15] = tested on: ESCHERICHIA COLI H560; test: as above; conditions: E. coli H560, unit assumed
[16] = tested on: STREPTOCOCCUS PYOGENES PIU 2548; test: as above; conditions: S. pyogenes PIU 2548, unit assumed
[17] = tested on: CANDIDA ALBICANS CCH 442; test: as above; conditions: C. albicans CCH 442, unit assumed
[18] = tested on: PSEUDOMONAS AERUGINOSA DPHD-2862; test: as above; conditions: P. aeruginosa DPHD-2862, unit assumed
[19] = tested on: STREPTOCOCCUS BOVIS A-5169; test: as above; conditions: S. bovis A-5169, unit assumed
[20] = tested on: PSEUDOMONAS AERUGINOSA DPHD-5263; test: as above; conditions: P. aeruginosa DPHD-5263, unit assumed
[21] = tested on: PSEUDOMONAS AERUGINOSA 5007; test: as above; conditions: P. aeruginosa 5007, unit assumed
[22] = tested on: STREPTOCOCCUS PYOGENES 930; test: as above; conditions: S. pyogenes 930, unit assumed
[23] = tested on: MYCOBACTERIUM SMEGMATIS ATCC 114; test: as above; conditions: M. smegmatis ATCC 114, unit assumed
[24] = tested on: ESCHERICHIA COLI DC-2; test: as above; conditions: E. coli DC-2, unit assumed
[25] = tested on: STAPHYLOCOCCUS AUREUS 1775; test: as above; conditions: S. aureus 1775, unit assumed
[26] = tested on: STAPHYLOCOCCUS EPIDERMIDIS 3519; conditions: S. epidermidis 3519; BHI agar; unit assumed
[27] = tested on: ESCHERICHIA COLI KNK 437; conditions: E. coli KNK 437; BHI agar; unit assumed
[28] = tested on: ESCHERICHIA COLI JUHL; conditions: E. coli JUHL; BHI agar; unit assumed
[29] = tested on: PSEUDOMONAS AERUGINOSA K799/61; test: In vitro antibacterial activity, MIC, BHI agar dilution; conditions: P. aeruginosa K799/61, unit assumed
[30] = tested on: ESCHERICHIA COLI SS; test: as above; conditions: E. coli SS, unit assumed
[31] = tested on: PSEUDOMONAS AERUGINOSA BMH10; test: as above; conditions: P. aeruginosa BMH10, unit assumed
[32] = tested on: STAPHYLOCOCCUS AUREUS A-5278; test: as above; conditions: S. aureus A-5278, unit assumed
[33] = tested on: ENTEROBACTER AEROGENES ATCC 13048; test: as above; conditions: E. aerogenes ATCC 13048, unit assumed

Structure (SMILES) | MIC [1] [µg/mL] | MIC [2] [µg/mL] | MIC [3] [µg/mL] | MIC [4] [µg/mL] | MIC [7] [µg/mL] | MIC [8] [µg/mL] | MIC [9] [µg/mL] | MIC [10] [µg/mL] | MIC [11] [µg/mL] | MIC [12] [µg/mL] | MIC [13] [µg/mL] | MIC [14] [µg/mL] | MIC [15] [µg/mL] | MIC [16] [µg/mL] | MIC [17] [µg/mL] | MIC [18] [µg/mL] | MIC [19] [µg/mL] | MIC [20] [µg/mL] | MIC [21] [µg/mL] | MIC [22] [µg/mL] | also measured
CC[C@H]1OC(=O)[C@H](C)C(=O)[C@H](C)[C@@H](O[C@@H]2O[C@H](C)C[C@H](N(C)C)[C@H]2O)[C@](C)(OC)C[C@@H](C)C2=N[C@H](COCc3ccccc3Cl)CN3C(=O)O[C@@]1(C)[C@H]3[C@H]2C [Example 78] | 0.78 (≈ 0.984 µM) | ≤ 0.005 | > 100 | 100 (≈ 126 µM) | > 100 | 0.78 (≈ 0.984 µM) | > 100 | > 100 | 0.05 (≈ 0.0631 µM) | 0.39 (≈ 0.492 µM) | 0.02 (≈ 0.0252 µM) | ≤ 0.005 | > 100 | 0.2 (≈ 0.252 µM) | 100 (≈ 126 µM) | > 100 | ≤ 0.005 | > 100 | > 100 | 25 (≈ 31.5 µM) | MIC [5]: 0.39 µg/mL (≈ 0.492 µM); MIC [6]: 0.39 µg/mL (≈ 0.492 µM); MIC [23]: 0.78 µg/mL (≈ 0.984 µM); MIC [24]: > 100 µg/mL; MIC [25]: 100 µg/mL (≈ 126 µM); MIC [26]: 0.39 µg/mL (≈ 0.492 µM); MIC [27]: > 100 µg/mL; MIC [28]: > 100 µg/mL; MIC [29]: 3.1 µg/mL (≈ 3.91 µM); MIC [30]: 1.56 µg/mL (≈ 1.97 µM); MIC [31]: > 100 µg/mL; MIC [32]: 100 µg/mL (≈ 126 µM); MIC [33]: > 100 µg/mL
CC[C@H]1OC(=O)[C@H](C)C(=O)[C@H](C)[C@@H](O[C@@H]2O[C@H](C)C[C@H](N(C)C)[C@H]2O)[C@](C)(OC)C[C@@H](C)C2=N[C@H](COCc3ccc(Cl)cc3)CN3C(=O)O[C@@]1(C)[C@H]3[C@H]2C [Example 79] | 0.39 (≈ 0.492 µM) | 0.01 (≈ 0.0126 µM) | > 100 | 100 (≈ 126 µM) | 100 (≈ 126 µM) | 0.39 (≈ 0.492 µM) | > 100 | > 100 | 0.1 (≈ 0.126 µM) | 0.39 (≈ 0.492 µM) | 0.05 (≈ 0.0631 µM) | ≤ 0.005 | > 100 | 0.39 (≈ 0.492 µM) | 100 (≈ 126 µM) | > 100 | 0.01 (≈ 0.0126 µM) | > 100 | > 100 | 50 (≈ 63.1 µM) | MIC [5]: 0.39 µg/mL (≈ 0.492 µM); MIC [6]: 0.39 µg/mL (≈ 0.492 µM); MIC [23]: 0.78 µg/mL (≈ 0.984 µM); MIC [24]: > 100 µg/mL; MIC [25]: 100 µg/mL (≈ 126 µM); MIC [26]: 0.39 µg/mL (≈ 0.492 µM); MIC [27]: > 100 µg/mL; MIC [28]: > 100 µg/mL; MIC [29]: 3.1 µg/mL (≈ 3.91 µM); MIC [30]: 1.56 µg/mL (≈ 1.97 µM); MIC [31]: > 100 µg/mL; MIC [32]: 100 µg/mL (≈ 126 µM); MIC [33]: > 100 µg/mL
CC[C@H]1OC(=O)[C@H](C)C(=O)[C@H](C)[C@@H](O[C@@H]2O[C@H](C)C[C@H](N(C)C)[C@H]2O)[C@](C)(OC)C[C@@H](C)C2=N[C@H](COCc3cccc(Cl)c3)CN3C(=O)O[C@@]1(C)[C@H]3[C@H]2C [Example 80] | 0.39 (≈ 0.492 µM) | 0.01 (≈ 0.0126 µM) | > 100 | 100 (≈ 126 µM) | 100 (≈ 126 µM) | 0.39 (≈ 0.492 µM) | > 100 | > 100 | 0.05 (≈ 0.0631 µM) | 0.2 (≈ 0.252 µM) | 0.05 (≈ 0.0631 µM) | ≤ 0.005 | > 100 | 0.2 (≈ 0.252 µM) | 100 (≈ 126 µM) | > 100 | ≤ 0.005 | > 100 | > 100 | 50 (≈ 63.1 µM) | MIC [6]: 0.39 µg/mL (≈ 0.492 µM); MIC [23]: 1.56 µg/mL (≈ 1.97 µM); MIC [24]: > 100 µg/mL; MIC [25]: 100 µg/mL (≈ 126 µM); MIC [26]: 0.39 µg/mL (≈ 0.492 µM); MIC [27]: > 100 µg/mL; MIC [28]: > 100 µg/mL; MIC [29]: 3.1 µg/mL (≈ 3.91 µM); MIC [30]: 1.56 µg/mL (≈ 1.97 µM); MIC [31]: > 100 µg/mL; MIC [32]: 100 µg/mL (≈ 126 µM); MIC [33]: > 100 µg/mL
CC[C@H]1OC(=O)[C@H](C)C(=O)[C@H](C)[C@@H](O[C@@H]2O[C@H](C)C[C@H](N(C)C)[C@H]2O)[C@](C)(OC)C[C@@H](C)C2=NC3CN(CCOC)CC3N3C(=O)O[C@@]1(C)[C@H]3[C@H]2C (stereo partly drawn) [Example 126] | 1.56 (≈ 2.12 µM) | 0.05 (≈ 0.0678 µM) | > 100 | 100 (≈ 136 µM) | > 100 | 1.56 (≈ 2.12 µM) | > 100 | > 100 | 0.2 (≈ 0.271 µM) | 0.78 (≈ 1.06 µM) | 0.2 (≈ 0.271 µM) | 0.05 (≈ 0.0678 µM) | > 100 | 1.56 (≈ 2.12 µM) | > 100 | > 100 | 0.02 (≈ 0.0271 µM) | > 100 | > 100 | > 100 | MIC [23]: 12.5 µg/mL (≈ 17 µM); MIC [24]: > 100 µg/mL; MIC [25]: > 100 µg/mL; MIC [26]: 1.56 µg/mL (≈ 2.12 µM); MIC [27]: > 100 µg/mL; MIC [28]: > 100 µg/mL; MIC [29]: 3.1 µg/mL (≈ 4.21 µM); MIC [30]: 0.78 µg/mL (≈ 1.06 µM); MIC [31]: > 100 µg/mL; MIC [32]: > 100 µg/mL; MIC [33]: > 100 µg/mL
